Test system: adult patients with type 2 diabetes mellitus and with increased or high or very high CV risk evidenced by a history of established macrovascular or renal …
Test: Cardiovascular (Safety) and Renal Microvascular Outcome Trial (linagliptin versus placebo)
Type: in vivo
Details: for All-cause mortality, Hazard Ratio: linagliptin vs placebo
Method: The effect of linagliptin on cardiovascular risk in adult patients with type 2 diabetes mellitus and with increased or high or very high CV risk evidenced by a history of established macrovascular or renal disease was evaluated in a Cardiovascular and Renal Microvascular Outcome Trial, a multi-center, multi-national, randomized, double-blind parallel group trial. The trial compared the risk of experiencing a major adverse cardiovascular event (MACE) between linagliptin and placebo when these were added to and used concomitantly with standard of care treatments for diabetes and other cardiovascular risk factors. The trial was event driven and patients were followed until at least 611 primary outcome events accrued.
A total of 6979 patients were treated (linagliptin 5 mg=3494; placebo=3485) and followed for a median of 2.2 years (median time on treatment 1.9 years). Approximately 80% of the study population was Caucasian, 9% was Asian, and 6% was Black. The mean age was 66 years and 63% were male.
The trial population included 1211 (17.4%) patients ≥75 years of age and 4348 (62.3%) patients with renal impairment. Approximately 19% of the population had eGFR ≥45 to <60 mL/min/1.73 m2, 28% of the population had eGFR ≥30 to <45 mL/min/1.73 m2 and 15% had eGFR <30 mL/min/1.73 m2. Overall, the use of diabetes medications was balanced across treatment groups (metformin 54%, sulfonylurea 32%, and insulin 57%). The use of medications to reduce cardiovascular risk was also balanced (aspirin 62%, statins 72%, ACE inhibitors or ARBs 81%, beta blockers 60%, and calcium channel blockers 41%).
The primary endpoint in the Cardiovascular and Renal Microvascular Outcome Trial was the time to first occurrence of three point (3P) MACE. A major adverse cardiac event was defined as a cardiovascular death or a nonfatal myocardial infarction (MI) or a nonfatal stroke. The statistical analysis plan tested for non-inferiority for the occurrence of (3P) MACE. The secondary endpoint was a renal composite, defined as renal death or sustained end stage renal disease or sustained decrease of 40% or more in eGFR.
The microvascular endpoint was defined as the composite of renal death, sustained ESRD, sustained decrease of ≥50% in eGFR, albuminuria progression, use of retinal photocoagulation or intravitreal injections of an anti-VEGF therapy for diabetic retinopathy or vitreous hemorrhage or diabetes-related-blindness. The estimated hazard ratio for time to first occurrence for the composite microvascular endpoint was 0.86 (95% CI 0.78, 0.95) for linagliptin versus placebo; mainly driven by albuminuria progression.
People with type 2 diabetes (T2D) with concomitant chronic kidney disease (CKD) and cardiovascular (CV) disease are at increased risk for recurrent CV events and hypoglycemia. Treatment of these individuals is clinically challenging, where the evidence-base for safety and efficacy of glucose lowering drugs is scarce, in particular in GFR categories G3b (eGFR 30-44 ml/min/1.73 m2), G4 (eGFR <30) and G5 (eGFR <15). We analyzed baseline characteristics and effects on CV and kidney outcomes with the DPP-4 inhibitor linagliptin (LINA) vs. placebo (PBO), across GFR categories in the Cardiovascular and Renal Microvascular Outcome Trial. People with T2D and either i) UACR >30 mg/g with concomitant CV disease, or ii) eGFR <45 ml/min/1.73 m^2 regardless of UACR, or eGFR ≥45-75 mL/min/1.73 m^2 and UACR >200 mg/g, were randomized to LINA 5 mg or placebo (PBO) q.d. in a double-blind fashion. The primary outcome was first occurrence of CV death, non-fatal myocardial infarction, or non-fatal stroke (3P-MACE), with an adjudicated secondary composite outcome of ESKD, renal death, or sustained ≥40% decrease in eGFR from baseline. Other adjudicated outcomes included hospitalized heart failure (hHF) and the 3P-MACE components. Subgroup-effects across GFR categories (G≤2, G3a, G3b and G≥4) were also assessed. […]

[1] = LINA vs PBO, across all GFR categories
[2] = linagliptin relative to placebo, listed as linagliptin

For `CC#CCn1c(N2CCC[C@@H](N)C2)nc2c1c(=O)n(Cc1nc(C)c3ccccc3n1)c(=O)n2C` [Linagliptin, 1-[(4-methyl-quinazolin-2-yl)methyl]-3-methyl-7-(2-butyn-1-yl)-8-(3-(R)-amino-piperidin-1-yl)-xanthine], the “HbA1c (in words)” value [1] was “reduced significantly”, the “risk for hypoglycemia (in words)” value [1] was “without increased risk” and the “Progression of albuminuria category, patients with event / patients analysed” value (in vivo) was 763/2162. For the same compound, the “risk of HHF regardless of baseline renal function (in words)” value (in vivo) was “did not affect”, the “Hospitalization for heart failure, Hazard Ratio” value (linagliptin relative to placebo) was 0.90 and the “Secondary renal composite, Hazard Ratio” value (linagliptin relative to placebo, listed as LINA) was 1.04. The “3P-MACE, Hazard Ratio” value (linagliptin relative to placebo, listed as TRADJENTA) was 1.02, the “3P-MACE, Hazard Ratio” value [2] was 1.02 and the “Secondary renal composite, Hazard Ratio” value [2] was 1.04. The “albuminuria progression (normo- to micro-/macroalbuminuria, or micro- to macroalbuminuria), hazard ratio” value (linagliptin versus placebo) was 0.86, the “composite microvascular endpoint, time to first occurrence, hazard ratio” value (linagliptin versus placebo, mainly driven by albuminuria progression) was 0.86 and the “All-cause mortality, Hazard Ratio” value was 0.98. The “All-cause mortality, Hazard Ratio” value (listed as TRADJENTA) was 0.98, the “All-cause mortality, Hazard Ratio” value (listed as linagliptin) was 0.98 and the “3P-MACE, Incidence Rate per 1000 PY” value (median follow-up 2.2 years) was 57.7 per 1000 PY. The “3P-MACE, Subjects (%)” value (median follow-up 2.2 years) was “(12.4) %”, the “All-cause mortality, Incidence Rate per 1000 PY” value (median follow-up 2.2 years) was 46.9 per 1000 PY and the “All-cause mortality, Subjects (%)” value (median follow-up 2.2 years) was “(10.5) %”. For the same compound, the “Hospitalization for heart failure, Incidence Rate per 1000 PY” value (median follow-up 2.2 years) was 27.7 per 1000 PY, the “Hospitalization for heart failure, Number of Subjects” value (median follow-up 2.2 years) was 209 and the “Hospitalization for heart failure, Subjects (%)” value (median follow-up 2.2 years) was “(6.0) %”. For the same compound, the “Secondary renal composite (renal death, ESRD, 40% sustained decrease in eGFR), Number of Subjects” value (median follow-up 2.2 years) was 327, the “Secondary renal composite, Incidence Rate per 1000 PY” value (median follow-up 2.2 years) was 48.9 per 1000 PY and the “Composite of first event of CV death, non-fatal MI, or non-fatal stroke (3P-MACE), Number of Subjects” value (median follow-up 2.2 years, added to standard of care) was 434. For the same compound, the “All-cause mortality, Subjects (%)” value (median follow-up 2.2 years, listed as TRADJENTA) was “(10.5%)” and the “Hospitalization for heart failure, Subjects (%)” value (median follow-up 2.2 years, listed as linagliptin) was 6.0%.

— patent US20240398818A1, “Cardiosafe Antidiabetic Therapy” (priority 2018, published 2024)
